Laboratory results from the supplement of paper PMC11208160.

Experiment: recombinant UMI read abundance after kanamycin selection (control-corrected) (log10(CPM+1)); higher = more efficient recombination; extreme values may be limits of the assay; sequences stand for … in AGTGCAGAGAAAATCGGCCAGTTTTCTCTGCCTGCAGTCCGCATGCCGTGGGACCCCTTGGGTTCTAACCTGTTGCCTAGATTTATGCAGCGGACTGCCTTTCTCCCAAAGTGATAAACCGG…AGGTTGGTTTCACT; site = the 11-nt donor
In short: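 Values, expressed as log10(CPM+1), derive from recombinant UMI counts converted to CPM, averaged across replicates and scaled by control-derived factors. Plating was with IPTG (0.07 mM) plus kanamycin or unselected, two replicates each. The screen pooled donor and donor-binding-loop pairs for the IS621 bridge recombinase in Escherichia coli.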
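Further: IS621 bridge recombinase in Escherichia coli cells against a fixed T5 target plasmid.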

Row | Sequence | recombinant UMI read abundance (log10)
1 | ATTCGCTCATGGACCGGTTTTCCCGGTAATCCGTATTTGAA (site ATTCGCTCTTT) | 0.571
2 | ATTCTCTCATGGACCGGTTTTCCCGGTAATCCGTATTTGTA (site ATTCTCTCTTA) | 2.35
3 | ATTCTCTCATGGACCGGTTTTCCCGGTAATCCGTATTTGTA (site CTTCTCTCTTA) | 2.42
4 | ATTCTCTCATGGACCGGTTTTCCCGGTAATCCGTATTTGTA (site GTTCTCTCTTA) | 1.52
5 | ATTCTCTCATGGACCGGTTTTCCCGGTAATCCGTATTTGTA (site TTTCTCTCTTA) | 1.58
6 | ATTCTTACATGGACCGGTTTTCCCGGTAATCCGTATTTGAG (site ATTCTTACTCT) | 0.0416
7 | ATTGAAACATGGACCGGTTTTCCCGGTAATCCGTATTTGGC (site ATTGAAACTGC) | 2.15
8 | ATTGAAGCATGGACCGGTTTTCCCGGTAATCCGTATTTGCA (site ATTGAAGCTTG) | 2.44
9 | ATTGACACATGGACCGGTTTTCCCGGTAATCCGTATTTGAC (site ATTGACACTGT) | 2.61
10 | ATTGAGACATGGACCGGTTTTCCCGGTAATCCGTATTTGAT (site ATTGAGACTAA) | 0.37
11 | ATTGAGACATGGACCGGTTTTCCCGGTAATCCGTATTTGAT (site ATTGAGACTAC) | 0.217
12 | ATTGAGACATGGACCGGTTTTCCCGGTAATCCGTATTTGAT (site ATTGAGACTAG) | 0.528
13 | ATTGAGACATGGACCGGTTTTCCCGGTAATCCGTATTTGAT (site ATTGAGACTAT) | 2.01
14 | ATTGATACATGGACCGGTTTTCCCGGTAATCCGTATTTGCG (site CCACTCCCTGT) | 0
15 | ATTGCACCATGGACCGGTTTTCCCGGTAATCCGTATTTGGT (site ATTGCACCTAC) | 0.00574
16 | ATTGCCACATGGACCGGTTTTCCCGGTAATCCGTATTTGCC (site ATTGCCACTGG) | 1.95
17 | ATTGTAACATGGACCGGTTTTCCCGGTAATCCGTATTTGAG (site ATTGTAACTCT) | 0.94
18 | ATTGTATCATGGACCGGTTTTCCCGGTAATCCGTATTTGTC (site ATTGTATCTGA) | 1.56
19 | ATTGTGACATGGACCGGTTTTCCCGGTAATCCGTATTTGCT (site ATTGTGACTAG) | 2.98
20 | ATTTCAACATGGACCGGTTTTCCCGGTAATCCGTATTTGAC (site ATTTCAACTGT) | 0.461
21 | ATTTCCACATGGACCGGTTTTCCCGGTAATCCGTATTTGTC (site ATTTCCACTGA) | 0.636
22 | ATTTGGGCATGGACCGGTTTTCCCGGTAATCCGTATTTGGG (site ATTTGGGCTCC) | 0.0319
23 | CAAAATCCATGGACCGGTTTTCCCGGTAATCCGTATTTGTA (site CAAAATCCTTA) | 1.8
24 | CAAAGGGCATGGACCGGTTTTCCCGGTAATCCGTATTTGTA (site CAAAGGGCTTA) | 2.57
25 | CAAAGTCCATGGACCGGTTTTCCCGGTAATCCGTATTTGTA (site AAAAGTCCTTA) | 0.474

Row | Sequence | recombinant UMI read abundance (log10)
26 | CAAAGTCCATGGACCGGTTTTCCCGGTAATCCGTATTTGTA (site CAAAGTCCTTA) | 2.04
27 | CAAAGTCCATGGACCGGTTTTCCCGGTAATCCGTATTTGTA (site GAAAGTCCTTA) | 0.405
28 | CAAAGTCCATGGACCGGTTTTCCCGGTAATCCGTATTTGTA (site TAAAGTCCTTA) | 0.742
29 | CAAATATCATGGACCGGTTTTCCCGGTAATCCGTATTTGAC (site CAAATATCTGT) | 1.58
30 | CAAATATCATGGACCGGTTTTCCCGGTAATCCGTATTTGAC (site CTAGTATCTGT) | 0.632
31 | CAACATACATGGACCGGTTTTCCCGGTAATCCGTATTTGGG (site CAACATACTCC) | 0.887
32 | CAACTCTCATGGACCGGTTTTCCCGGTAATCCGTATTTGGT (site CAACTCTCTAC) | 2.56
33 | CAACTGACATGGACCGGTTTTCCCGGTAATCCGTATTTGCA (site CAACTGACTTG) | 2.73
34 | CAACTTCCATGGACCGGTTTTCCCGGTAATCCGTATTTGTT (site CAACTTCCTAA) | 1.5
35 | CAAGAAGCATGGACCGGTTTTCCCGGTAATCCGTATTTGCT (site CAAGAAGCTAG) | 1.55
36 | CAAGAAGCATGGACCGGTTTTCCCGGTAATCCGTATTTGCT (site CAAGCAGCTAG) | 0
37 | CAAGAAGCATGGACCGGTTTTCCCGGTAATCCGTATTTGCT (site CAAGGAGCTAG) | 1.87
38 | CAAGAAGCATGGACCGGTTTTCCCGGTAATCCGTATTTGCT (site CAAGTAGCTAG) | 1.17
39 | CAAGAGTCATGGACCGGTTTTCCCGGTAATCCGTATTTGGT (site CAAGAGTCTAC) | 2.79
40 | CAAGATTCATGGACCGGTTTTCCCGGTAATCCGTATTTGGG (site CAAGATTCTCC) | 0.89
41 | CAAGCACCATGGACCGGTTTTCCCGGTAATCCGTATTTGCT (site CAAGCAACTAG) | 0
42 | CAAGCACCATGGACCGGTTTTCCCGGTAATCCGTATTTGCT (site CAAGCACCTAG) | 0.47
43 | CAAGCACCATGGACCGGTTTTCCCGGTAATCCGTATTTGCT (site CAAGCAGCTAG) | 0.0135
44 | CAAGCACCATGGACCGGTTTTCCCGGTAATCCGTATTTGCT (site CAAGCATCTAG) | 0.0059
45 | CAAGCAGCATGGACCGGTTTTCCCGGTAATCCGTATTTGCC (site CAAGCAGCTAG) | 1.86
46 | CAAGCAGCATGGACCGGTTTTCCCGGTAATCCGTATTTGCC (site CAAGCAGCTCG) | 1.16
47 | CAAGCAGCATGGACCGGTTTTCCCGGTAATCCGTATTTGCC (site CAAGCAGCTGG) | 2.75
48 | CAAGCAGCATGGACCGGTTTTCCCGGTAATCCGTATTTGCC (site CAAGCAGCTTG) | 1.94
49 | CAAGCATCATGGACCGGTTTTCCCGGTAATCCGTATTTGCT (site CAAGCAACTAG) | 0
50 | CAAGCATCATGGACCGGTTTTCCCGGTAATCCGTATTTGCT (site CAAGCACCTAG) | 0

Row | Sequence | recombinant UMI read abundance (log10)
51 | CAAGCATCATGGACCGGTTTTCCCGGTAATCCGTATTTGCT (site CAAGCAGCTAG) | 0
52 | CAAGCATCATGGACCGGTTTTCCCGGTAATCCGTATTTGCT (site CAAGCATCTAG) | 2.05
53 | CAAGCCTCATGGACCGGTTTTCCCGGTAATCCGTATTTGTC (site CAAGCCTCTGA) | 3.3
54 | CAAGCGCCATGGACCGGTTTTCCCGGTAATCCGTATTTGTT (site CAAGCGCCTAA) | 2.13
55 | CAAGCGCCATGGACCGGTTTTCCCGGTAATCCGTATTTGTT (site CAAGCGCCTCA) | 0.0113
56 | CAAGCGCCATGGACCGGTTTTCCCGGTAATCCGTATTTGTT (site CAAGCGCCTGA) | 1.75
57 | CAAGCGCCATGGACCGGTTTTCCCGGTAATCCGTATTTGTT (site CAAGCGCCTTA) | 0.663
58 | CAAGCTGCATGGACCGGTTTTCCCGGTAATCCGTATTTGCT (site CAAGCAGCTAG) | 0.397
59 | CAAGCTGCATGGACCGGTTTTCCCGGTAATCCGTATTTGCT (site CAAGCCGCTAG) | 0.95
60 | CAAGCTGCATGGACCGGTTTTCCCGGTAATCCGTATTTGCT (site CAAGCGGCTAG) | 0
61 | CAAGCTGCATGGACCGGTTTTCCCGGTAATCCGTATTTGCT (site CAAGCTGCTAG) | 2.42
62 | CAAGGAGCATGGACCGGTTTTCCCGGTAATCCGTATTTGTC (site CAAGGAGCTGA) | 3.18
63 | CAAGTCACATGGACCGGTTTTCCCGGTAATCCGTATTTGAG (site CAAGTCACTCA) | 1.48
64 | CAAGTCACATGGACCGGTTTTCCCGGTAATCCGTATTTGAG (site CAAGTCACTCC) | 0.563
65 | CAAGTCACATGGACCGGTTTTCCCGGTAATCCGTATTTGAG (site CAAGTCACTCG) | 1.1
66 | CAAGTCACATGGACCGGTTTTCCCGGTAATCCGTATTTGAG (site CAAGTCACTCT) | 1.82
67 | CAAGTCCCATGGACCGGTTTTCCCGGTAATCCGTATTTGCT (site CAAATCCCTAG) | 0
68 | CAAGTCCCATGGACCGGTTTTCCCGGTAATCCGTATTTGCT (site CAACTCCCTAG) | 0.843
69 | CAAGTCCCATGGACCGGTTTTCCCGGTAATCCGTATTTGCT (site CAAGTCCCTAG) | 1.92
70 | CAAGTCCCATGGACCGGTTTTCCCGGTAATCCGTATTTGCT (site CAATTCCCTAG) | 0
71 | CAAGTCGCATGGACCGGTTTTCCCGGTAATCCGTATTTGGG (site CAAGTCACTCC) | 0.0586
72 | CAAGTCGCATGGACCGGTTTTCCCGGTAATCCGTATTTGGG (site CAAGTCCCTCC) | 0.554
73 | CAAGTCGCATGGACCGGTTTTCCCGGTAATCCGTATTTGGG (site CAAGTCGCTCC) | 0.908
74 | CAAGTCGCATGGACCGGTTTTCCCGGTAATCCGTATTTGGG (site CAAGTCTCTCC) | 1.46
75 | CAAGTCTCATGGACCGGTTTTCCCGGTAATCCGTATTTGGG (site CAAGTCACTCC) | 0.0252
